This is an account of results in US6465716B2, “Nod factor binding protein from legume roots” (The Regents of the University of California, priority 1997, dated 2002).

Data set [1] addresses T1, NBP46 (Vigna unguiculata, UniProt Q9XFC9). Description: competitive solid phase assay: inhibition of binding of 125I-NBP46 to HBG A+H-Sepharose. On the set-up: species or system Dolichos biflorus. The following applies: up to 50 mM concentrations. The text has this:
In a preferred embodiment, a competitive solid phase assay is used to measure NBP46 activity (Etzler, M. E., Glycoconj. J. 11:395 (1994)). This assay measures the ability of various ligands to inhibit the binding of labeled NBP46 protein to pronase-digested hog gastric mucin blood group A+H substance (HBG A+H) conjugated to Sepharose® (Quinn, J. M. & Etzler, M. E., Arch. Biochem. Biophys. 258:535 (1987)).
The monomeric nature of NBP46 in solution precluded the use of conventional precipitin or agglutination assays in determining the carbohydrate binding specificity of this lectin. Therefore a complex carbohydrate binding assay was employed (Etzler, M. E., Glycoconj. J. 11:395 (1994)).
Hog blood group A+H substance was isolated from hog gastric mucin (Etzler, M. E., Glyconj. J. 11:395 (1994)) and de-N-acetylated as described in Etzler, M. E., et al., Arch. Biochem. Biophys. 141:588 (1970). After incubation at room temperature overnight, binding was measured as previously described (Etzler, M. E., Glyconj. J. 11:395 (1994)).

Data set [2] concerns the target T1, NBP46. Kind of data set: phosphatase (phosphohydrolase) assay of NBP46. Type of data set: biochemical, Dolichos biflorus. The following applies: in words; for hydrolysis of phosphate from substrate by NBP46 (phosphohydrolase activity): substrate specificity. As to the method: (§1) The sequence similarities found between NBP46 and the above enzymes prompted the testing of NBP46 for phosphohydrolase activity. The reactions were conducted in 300 μL of 60 mM MOPS, pH 6.8, containing 1 mM MgCl2 in a microtiter plate using a multichannel pipette. At various time points up to 4 minutes, 30 or 60 μL aliquots were removed and assayed for inorganic phosphate by a photometric microtiter assay (Drueckes, P., et al., Anal. Biochem. 230:173 (1995)). Conditions were chosen so that less than 10% of the total substrate was converted to product, and the initial velocity (v) was determined from the above rate measurements.
(§2) N-BP46 (201 ng/ml) was incubated at 25° C. in the presence of various concentrations of substrate in a final volume of 100 μl of 60 mM MOPS, pH 6.8, containing 1 mM MgCl2. The reactions were conducted in a microtiter plate using a multichannel pipette. At various time points, 30 μl aliquots were removed and assayed for inorganic phosphate by a photometric microtiter assay (Drueckes, P. et al. Anal. Biochem. 230:173 (1995)), modified by using four parts ammonium molybdate reagent to one part 10% ascorbate for the reagent mixture. Conditions were chosen so that less than 10% of the total substrate was converted to product.

Data set [3] concerns the target T1, NBP46. Description: competitive binding assay with chitin as solid phase: inhibition of binding of 125I-NBP46 to chitin. On the set-up: species or system Dolichos biflorus. To be noted: for inhibition of binding of 125I-NBP46 to chitin: relative inhibition, in words. On the procedure: B. japonicum USDA110 Nod factor (^▪); R. sp. NGR234(NGRA) Nod factor (^▴); R. sp. NGR234(NGRB) Nod factor (∇); R. meliloti Nod factor (^●), N-acetylglucosamine (□), chitin disaccharide (^▾); chitin tetrasaccharide (Δ); chitin pentasaccharide (♦), chitin hexasaccharide (O).
Using chitin as a solid phase, a competitive binding assay was utilized to examine the carbohydrate specificity of this protein (FIG. 3).
Solid phase binding assays were conducted using iodinated NBP46 and purified shrimp chitin powder (Sigma Chemical Company, St. Louis, Mo.), which was N-acetylated prior to use with 15 mM acetic anhydride in 0.5 M NaHCO3 for one hour at room temperature. The assays were conducted in a final volume of 100 μl of 10 mM MOPS buffer, pH 7.2, containing 0.02% Tween-20 and 0.01% NaN3.

Substrate in data set [4]: Nc1ncnc2c1ncn2[C@@H]1O[C@H](COP(=O)(O)OP(=O)(O)O)[C@@H](O)[C@H]1O
Description: phosphatase (phosphohydrolase) assay of NBP46. The following applies: other: 60 mM MOPS, pH 6.8, 1 mM MgCl2, 25.0 °C. In kind it is biochemical, Dolichos biflorus. On the procedure: as §1, §2

Take `CC(=O)N[C@H]1C(O)O[C@H](CO)[C@H](O)[C@@H]1O` (stereo partly drawn) [N-acetyl-D-galactosamine]: at NBP46 [1], the “inhibition of binding of 125I-NBP46 to HBG A+H-Sepharose” value is recorded as “no significant inhibition”.
Take `Nc1ncnc2c1ncn2[C@@H]1O[C@H](COP(=O)(O)OP(=O)(O)O)[C@@H](O)[C@H]1O` [ADP]: the “hydrolysis of phosphate from substrate by NBP46 (phosphohydrolase activity)” value (shortened to “hydrolysis of phosphate from substrate”) on NBP46 [2] was “catalyzes the hydrolysis of phosphate”.
For the molecule `CCCCCC/C=C\CCCCCCCCCC(=O)O` [cis-vaccenic acid], the “inhibition of NBP46 binding to chitin” value at NBP46 [3] (concentrations up to 1.2 mM) is “No significant inhibition”.
Consider `CC(=O)N[C@H]1[C@H](O[C@H]2[C@H](O)[C@@H](NC(C)=O)C(O)O[C@@H]2CO)O[C@H](CO)[C@@H](O)[C@@H]1O` (stereo partly drawn) [chitin disaccharide], for which, on NBP46 [3], the “inhibition of binding of 125I-NBP46 to chitin” value is reported as “approximately ten-fold better inhibition than the monosaccharide”.
Regarding `CC(=O)N[C@@H]1[C@@H](O)[C@H](O[C@@H]2O[C@H](CO)[C@@H](O[C@@H]3O[C@H](CO)[C@@H](O[C@@H]4O[C@H](CO)[C@@H](O[C@@H]5O[C@H](CO)[C@@H](O)[C@H](O)[C@H]5NC(C)=O)[C@H](O)[C@H]4NC(C)=O)[C@H](O)[C@H]3NC(C)=O)[C@H](O)[C@H]2NC(C)=O)[C@@H](CO)O[C@H]1O` [chitin pentasaccharide], on NBP46 [3], the “inhibition of binding of 125I-NBP46 to chitin” value was “slightly better inhibitors than the disaccharide”.
For `O=C[C@H](O)[C@@H](O)[C@H](O)[C@H](O)COP(=O)(O)O` [glucose-6-phosphate], the “hydrolysis of phosphate from substrate” value at NBP46 [2] is reported as “no activity”.
On the same count and under the same terms, the entry for `Nc1nc2c(ncn2[C@@H]2O[C@H](COP(=O)(O)OP(=O)(O)OP(=O)(O)O)[C@@H](O)[C@H]2O)c(=O)[nH]1` [GTP] is “broad specificity for nucleotide triphosphates”.
As to `CC(=O)N[C@@H]1[C@@H](O)[C@H](O)[C@@H](CO)O[C@H]1O` [N-acetyl-D-glocosamine], on NBP46 [3], the “inhibition of binding of 125I-NBP46 to chitin” value is on record as “Inhibition of binding was obtained with high concentrations”. Moreover, the “phosphatase activity / Vmax of NBP46 after preincubation with ligand” value at NBP46 [2] (concentration range as worded) is “increase in enzyme activity is also obtained with low millimolar concentrations”.
As for `CC(=O)NC1C(O)OC(CO)C(OC2OC(CO)C(OC3OC(CO)C(OC4OC(CO)C(OC5OC(CO)C(OC6OC(CO)C(O)C(O)C6NC(C)=O)C(O)C5NC(C)=O)C(O)C4NC(C)=O)C(O)C3NC(C)=O)C(O)C2NC(C)=O)C1O` (stereo not drawn) [chitin hexasaccharide], the “inhibition of binding of 125I-NBP46 to chitin” value on NBP46 [3] was “slightly better inhibitors than the disaccharide”.
With `Nc1ncnc2c1ncn2[C@@H]1O[C@H](COP(=O)(O)O)[C@@H](O)[C@H]1O` [AMP], the “hydrolysis of phosphate from substrate” value at NBP46 [2] is “no activity”.
On the same count and under the same terms, the entry for `O=P(O)(O)OP(=O)(O)O` [pyrophosphate] is “no activity”; for `Nc1ncnc2c1ncn2[C@@H]1O[C@H](COP(=O)(O)OP(=O)(O)OP(=O)(O)O)[C@@H](O)[C@H]1O` [ATP] it is “catalyzes the hydrolysis of phosphate”; for `Nc1ccn([C@@H]2O[C@H](COP(=O)(O)OP(=O)(O)OP(=O)(O)O)[C@@H](O)[C@H]2O)c(=O)n1` [CTP] it is “broad specificity for nucleotide triphosphates”.
With `C[C@H](O)[C@@H](O)[C@@H](O)[C@H](O)C=O` [L-fucose], the “inhibition of NBP46 binding to chitin” value on NBP46 [3] (concentrations up to 50 mM) is reported as “No significant inhibition”. Further, the “inhibition of binding of 125I-NBP46 to HBG A+H-Sepharose” value at NBP46 [1] is listed as “no significant inhibition”.
For `O=c1ccn([C@@H]2O[C@H](COP(=O)(O)OP(=O)(O)OP(=O)(O)O)[C@@H](O)[C@H]2O)c(=O)[nH]1` [UTP], at NBP46 [2], the “hydrolysis of phosphate from substrate” value was “broad specificity for nucleotide triphosphates”.

B1: NBP46 (Vigna unguiculata subsp. cylindrica) (protein)
chain: QYVGNSILLNHRKILPNQELLTSYAVIFDAGSSGSRVHVFNFDQNLDLLHIGNDLEFTKKIKPGLSSYADKPEKAAESLIPLLEEAEDVVPEELHPKTPLKLGATAGLRLLDGDAAEKILQAVREMFRNRSSLSVQPDAVSVIDGTQEGSYLWVTVNYLLGKLGKKFTKTVGVIDLGGASVQMAYAVSRNTAKNAPKPPQGEDPYMKKLVLKGKKYDLYVHSYLRYGNDAARVKIFKTTDGAASPCLLAGYEDIYRYSGESYNIYGPTSGANFNECRDLALQILRLNEPCSHENCTFGGIWDGGKGSGQKNLVVTSAFYYRSSEVGFVTPPNSKNRPLDFETAAKQACSLTFEEAKSTFPNVEKDKLPFVCVDFTYQYTLLVDGFGLDPEQEITVAEGIEYQDAIVETAWPLGTAIEAISSLPKFNRLMYFI
For the molecule B1, the Km (usually the substrate concentration at which the rate is half of its maximum) in data set [4] turned out to be 615 µM.
